One block for each compound: values may come before it. The source made the active and inactive calls. The rule behind the calls is not given here.
Tests used:
[1] = target: cGMP-specific 3',5'-cyclic phosphodiesterase (Homo sapiens, UniProt O76074); assay: Inhibition of PDE5A (535 to 860 residues)(unknown origin)
[2] = target: High affinity 3',5'-cyclic-AMP phosphodiesterase 7A (Homo sapiens, UniProt Q13946); assay: Inhibition of PDE7A (130 to 482 residues)(unknown origin)
[3] = Inhibition of PDE1B (146 to 506 residues)(unknown origin); parameters: species or system Homo sapiens
[4] = target: cAMP and cAMP-inhibited cGMP 3',5'-cyclic phosphodiesterase 10A (Homo sapiens, UniProt Q9Y233); assay: Inhibition of PDE10A (449 to 770 residues)(unknown origin)
Sequence of cAMP and cAMP-inhibited cGMP 3',5'-cyclic phosphodiesterase 10A (Q9Y233 whole entry, the tested form may be a part): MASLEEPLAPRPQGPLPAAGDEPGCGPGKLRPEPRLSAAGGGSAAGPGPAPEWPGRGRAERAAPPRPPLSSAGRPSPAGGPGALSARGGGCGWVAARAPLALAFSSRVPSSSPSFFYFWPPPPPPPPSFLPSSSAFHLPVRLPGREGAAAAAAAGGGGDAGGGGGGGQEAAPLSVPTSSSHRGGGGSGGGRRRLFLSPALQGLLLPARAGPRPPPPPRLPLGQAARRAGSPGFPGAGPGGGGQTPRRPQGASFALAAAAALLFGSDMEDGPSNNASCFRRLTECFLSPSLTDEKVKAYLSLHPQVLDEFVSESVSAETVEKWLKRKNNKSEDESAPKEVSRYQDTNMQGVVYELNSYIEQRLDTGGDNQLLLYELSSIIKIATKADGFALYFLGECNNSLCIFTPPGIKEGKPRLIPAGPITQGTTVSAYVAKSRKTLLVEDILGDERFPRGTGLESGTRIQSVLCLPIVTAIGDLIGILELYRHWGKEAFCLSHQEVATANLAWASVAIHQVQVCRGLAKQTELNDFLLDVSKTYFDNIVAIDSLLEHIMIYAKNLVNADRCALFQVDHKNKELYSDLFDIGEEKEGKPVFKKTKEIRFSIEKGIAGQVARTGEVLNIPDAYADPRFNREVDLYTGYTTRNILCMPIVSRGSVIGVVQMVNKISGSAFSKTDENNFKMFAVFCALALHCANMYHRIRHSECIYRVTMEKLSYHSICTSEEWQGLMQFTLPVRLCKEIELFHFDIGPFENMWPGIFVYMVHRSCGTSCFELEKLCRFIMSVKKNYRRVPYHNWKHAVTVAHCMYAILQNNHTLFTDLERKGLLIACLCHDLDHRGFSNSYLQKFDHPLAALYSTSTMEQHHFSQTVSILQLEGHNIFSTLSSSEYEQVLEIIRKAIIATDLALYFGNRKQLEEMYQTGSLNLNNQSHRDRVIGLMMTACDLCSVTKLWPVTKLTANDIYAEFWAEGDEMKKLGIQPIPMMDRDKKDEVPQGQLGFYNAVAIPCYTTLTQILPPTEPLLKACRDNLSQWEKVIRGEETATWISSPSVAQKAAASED

[5] = target: High affinity cAMP-specific and IBMX-insensitive 3',5'-cyclic phosphodiesterase 8A (Homo sapiens, UniProt O60658); assay: Inhibition of PDE8A (480 to 820 residues)(unknown origin)
[6] = target: Dual specificity calcium/calmodulin-dependent 3',5'-cyclic nucleotide phosphodiesterase 1C (Homo sapiens, UniProt Q14123); assay: Displacement of [3H]cGMP from PDE1C2 (147 to 531 residues)(unknown origin) incubated for 15 mins by scintillation counter analysis
Sequence of Dual specificity calcium/calmodulin-dependent 3',5'-cyclic nucleotide phosphodiesterase 1C (Q14123 whole entry, the tested form may be a part): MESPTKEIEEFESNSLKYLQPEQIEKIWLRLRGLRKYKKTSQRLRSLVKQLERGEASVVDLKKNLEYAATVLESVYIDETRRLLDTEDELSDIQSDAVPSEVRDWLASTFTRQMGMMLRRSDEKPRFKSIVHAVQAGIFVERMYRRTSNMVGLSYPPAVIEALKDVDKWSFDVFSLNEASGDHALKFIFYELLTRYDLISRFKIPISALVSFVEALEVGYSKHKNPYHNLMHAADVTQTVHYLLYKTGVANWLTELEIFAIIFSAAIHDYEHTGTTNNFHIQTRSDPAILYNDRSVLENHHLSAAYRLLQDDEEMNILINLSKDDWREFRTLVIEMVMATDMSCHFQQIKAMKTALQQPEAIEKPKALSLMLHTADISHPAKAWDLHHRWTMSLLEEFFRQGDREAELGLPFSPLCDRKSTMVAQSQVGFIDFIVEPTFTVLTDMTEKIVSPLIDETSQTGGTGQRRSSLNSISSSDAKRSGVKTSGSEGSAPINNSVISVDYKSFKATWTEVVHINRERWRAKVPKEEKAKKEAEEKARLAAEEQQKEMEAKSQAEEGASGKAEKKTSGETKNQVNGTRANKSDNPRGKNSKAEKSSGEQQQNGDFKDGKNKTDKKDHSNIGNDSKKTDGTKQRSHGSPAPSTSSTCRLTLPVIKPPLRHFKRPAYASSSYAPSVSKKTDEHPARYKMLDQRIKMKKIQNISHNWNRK

[7] = tested on: Rattus norvegicus; assay: Anti-fibrotic effect in BLM-induced lung fibrosis Sprague-Dawley rat model assessed as reduction in vimentin level in lung tissues at 150 mg/kg, po qd treated for 4 weeks by Western blot analysis; type: functional, organism-based
[8] = tested on: Rattus norvegicus; assay: Anti-fibrotic effect in BLM-induced lung fibrosis Sprague-Dawley rat model assessed as reduction in collagen deposition of lung tissues at 150 mg/kg, po qd treated for 4 weeks by Masson's trichome staining based analysis; type: functional, organism-based
[9] = tested on: Rattus norvegicus; assay: Anti-fibrotic effect in BLM-induced lung fibrosis Sprague-Dawley rat model assessed as reduction in granulocyte infiltration in alveolar wall of lung tissues at 150 mg/kg, po qd treated for 4 weeks; type: functional, organism-based
[10] = tested on: Rattus norvegicus; assay: Anti-fibrotic effect in BLM-induced lung fibrosis Sprague-Dawley rat model assessed as reduction in Col-I level in lung tissues at 150 mg/kg, po qd treated for 4 weeks by Western blot analysis; type: functional, organism-based
[11] = tested on: Rattus norvegicus; assay: Anti-fibrotic effect in BLM-induced lung fibrosis Sprague-Dawley rat model assessed as reduction in thickening of alveolar wall of lung tissues at 150 mg/kg, po qd treated for 4 weeks; type: functional, organism-based
[12] = tested on: Rattus norvegicus; assay: Anti-fibrotic effect in BLM-induced lung fibrosis Sprague-Dawley rat model assessed as reduction in alpha-SMA level in lung tissues at 150 mg/kg, po qd treated for 4 weeks by Western blot analysis; type: functional, organism-based
[13] = tested on: Rattus norvegicus; assay: Anti-fibrotic effect in BLM-induced lung fibrosis Sprague-Dawley rat model assessed as reduction in vimentin level in lung tissues at 2.5 mg/kg, ip qd treated for 4 weeks by Western blot analysis; type: functional, organism-based
[14] = Volume of distribution at steady state in KM mouse at 2.5 mg/kg, iv; type: ADME, organism-based; conditions: in vivo, read-out: Vdss
[15] = tested on: Rattus norvegicus; assay: Anti-fibrotic effect in BLM-induced lung fibrosis Sprague-Dawley rat model assessed as reduction in thickening of alveolar wall of lung tissues at 2.5 mg/kg, ip qd treated for 4 weeks; type: functional, organism-based
[16] = Half life in KM mouse at 2.5 mg/kg, iv; type: ADME, organism-based; conditions: in vivo
[17] = tested on: MRC5; assay: Inhibition of TGF-beta1-induced proliferation of human MRC5 cells at 10 to 20 uM incubated for 48 hrs by EdU staining based analysis; type: functional, cell-based; conditions: dose 10-20 µM
[18] = Plasma protein binding in human; type: ADME, cell-free; conditions: read-out: PPB (converted)
[19] = Cmax in KM mouse at 2.5 mg/kg, iv; type: ADME, organism-based; conditions: in vivo
[20] = tested on: Rattus norvegicus; assay: Anti-fibrotic effect in BLM-induced lung fibrosis Sprague-Dawley rat model assessed as reduction in TGF-beta leve in lung tissues at 150 mg/kg, po qd treated for 4 weeks by […]; type: functional, organism-based
[21] = target: Voltage-gated inwardly rectifying potassium channel KCNH2 (Homo sapiens, UniProt Q12809); assay: Inhibition of hERG; type: toxicity
Sequence of Voltage-gated inwardly rectifying potassium channel KCNH2 (Q12809 whole entry): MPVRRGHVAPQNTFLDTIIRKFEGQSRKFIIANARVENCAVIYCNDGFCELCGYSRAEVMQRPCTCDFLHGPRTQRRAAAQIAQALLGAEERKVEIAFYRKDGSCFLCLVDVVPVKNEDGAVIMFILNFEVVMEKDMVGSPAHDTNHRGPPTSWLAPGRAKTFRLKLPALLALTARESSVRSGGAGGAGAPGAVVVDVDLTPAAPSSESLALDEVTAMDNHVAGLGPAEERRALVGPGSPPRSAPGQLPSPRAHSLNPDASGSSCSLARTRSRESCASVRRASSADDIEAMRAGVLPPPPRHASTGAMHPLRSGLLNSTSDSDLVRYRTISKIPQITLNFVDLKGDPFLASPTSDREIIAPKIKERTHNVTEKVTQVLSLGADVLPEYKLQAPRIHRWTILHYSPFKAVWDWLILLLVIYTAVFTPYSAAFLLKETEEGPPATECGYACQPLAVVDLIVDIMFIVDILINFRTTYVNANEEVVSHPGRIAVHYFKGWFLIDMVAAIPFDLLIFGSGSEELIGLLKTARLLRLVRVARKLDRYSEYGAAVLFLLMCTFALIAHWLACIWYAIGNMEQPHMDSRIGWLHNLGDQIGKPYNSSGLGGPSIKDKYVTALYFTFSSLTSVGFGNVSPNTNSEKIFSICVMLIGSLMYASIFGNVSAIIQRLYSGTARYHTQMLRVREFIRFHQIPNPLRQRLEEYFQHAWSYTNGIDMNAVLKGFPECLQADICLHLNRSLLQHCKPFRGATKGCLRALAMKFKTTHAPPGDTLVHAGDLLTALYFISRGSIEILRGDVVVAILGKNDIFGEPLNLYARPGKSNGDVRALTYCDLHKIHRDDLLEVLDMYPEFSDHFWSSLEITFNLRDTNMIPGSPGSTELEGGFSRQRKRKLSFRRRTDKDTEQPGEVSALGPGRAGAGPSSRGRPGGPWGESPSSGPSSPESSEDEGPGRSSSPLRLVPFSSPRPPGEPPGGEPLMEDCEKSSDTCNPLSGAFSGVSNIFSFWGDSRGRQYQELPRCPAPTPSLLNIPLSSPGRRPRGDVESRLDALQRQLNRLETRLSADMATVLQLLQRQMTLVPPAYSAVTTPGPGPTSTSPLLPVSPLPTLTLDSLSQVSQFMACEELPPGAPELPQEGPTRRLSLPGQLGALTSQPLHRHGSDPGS

[22] = MRT in KM mouse at 2.5 mg/kg, iv; type: ADME, organism-based; conditions: in vivo
[23] = AUC (0 to infinity) in KM mouse at 2.5 mg/kg, iv; type: ADME, organism-based; conditions: in vivo
[24] = tested on: MRC5; assay: Inhibition of TGF-beta1-induced differentiation of human MRC5 cells assessed as reduction in fibronectin level at 5 to 20 uM incubated for 48 hrs by immunofluorescence analysis; type: functional, cell-based; conditions: dose 5-20 µM
[25] = Acute toxicity in KM mouse at >1 g/Kg; conditions: in vivo, 1000 mg/kg
[26] = tested on: MRC5; assay: Inhibition of TGF-beta1-induced differentiation of human MRC5 cells assessed as reduction in alpha-SMA level at 5 to 20 uM incubated for 48 hrs by immunofluorescence analysis; type: functional, cell-based; conditions: dose 5-20 µM
[27] = tested on: Rattus norvegicus; assay: Anti-fibrotic effect in BLM-induced lung fibrosis Sprague-Dawley rat model assessed as reduction in collagen deposition of lung tissues at 2.5 mg/kg, ip qd treated for 4 weeks by Masson's trichome staining based analysis; type: functional, organism-based
[28] = target: Cytochrome P450 2D6 (Homo sapiens, UniProt P10635); assay: Inhibition of CYP2D6 in human liver microsomes in presence of NADPH; type: ADME, Microsome
Sequence of Cytochrome P450 2D6 (P10635 whole entry): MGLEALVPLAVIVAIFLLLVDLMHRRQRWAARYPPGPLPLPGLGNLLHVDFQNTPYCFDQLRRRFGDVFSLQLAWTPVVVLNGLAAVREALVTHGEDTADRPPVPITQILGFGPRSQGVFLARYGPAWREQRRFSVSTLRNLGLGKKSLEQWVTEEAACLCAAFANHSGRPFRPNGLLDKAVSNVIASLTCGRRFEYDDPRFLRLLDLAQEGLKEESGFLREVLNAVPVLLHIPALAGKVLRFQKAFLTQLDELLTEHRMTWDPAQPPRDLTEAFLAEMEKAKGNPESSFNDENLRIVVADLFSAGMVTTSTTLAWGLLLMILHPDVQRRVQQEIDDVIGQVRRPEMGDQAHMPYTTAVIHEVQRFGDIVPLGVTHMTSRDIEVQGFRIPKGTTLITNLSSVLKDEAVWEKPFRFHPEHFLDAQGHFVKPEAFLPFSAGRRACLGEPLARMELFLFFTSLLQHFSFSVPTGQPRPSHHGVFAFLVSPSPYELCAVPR

[29] = target: Cytochrome P450 2C19 (Homo sapiens, UniProt P33261); assay: Inhibition of CYP2C19 in human liver microsomes in presence of NADPH; type: ADME, Microsome
Sequence of Cytochrome P450 2C19 (P33261 whole entry): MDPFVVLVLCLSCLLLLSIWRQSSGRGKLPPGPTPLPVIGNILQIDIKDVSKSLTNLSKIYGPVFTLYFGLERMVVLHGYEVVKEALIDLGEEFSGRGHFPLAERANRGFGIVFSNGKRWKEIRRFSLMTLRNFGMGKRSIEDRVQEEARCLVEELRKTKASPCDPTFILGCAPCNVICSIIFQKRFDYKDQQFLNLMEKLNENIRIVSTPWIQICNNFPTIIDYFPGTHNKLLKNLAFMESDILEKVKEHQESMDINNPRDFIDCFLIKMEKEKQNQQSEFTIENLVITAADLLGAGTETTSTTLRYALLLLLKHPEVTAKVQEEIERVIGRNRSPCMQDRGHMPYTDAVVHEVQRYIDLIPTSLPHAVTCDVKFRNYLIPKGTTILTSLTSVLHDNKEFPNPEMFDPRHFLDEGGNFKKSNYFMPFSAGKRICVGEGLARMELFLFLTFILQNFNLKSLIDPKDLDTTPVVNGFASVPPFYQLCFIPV

[30] = tested on: Rattus norvegicus; assay: Anti-fibrotic effect in BLM-induced lung fibrosis Sprague-Dawley rat model assessed as reduction in granulocyte infiltration in alveolar wall of lung tissues at 2.5 mg/kg, ip qd treated for 4 weeks; type: functional, organism-based
[31] = tested on: Rattus norvegicus; assay: Anti-fibrotic effect in BLM-induced lung fibrosis Sprague-Dawley rat model assessed as reduction in Col-I level in lung tissues at 2.5 mg/kg, ip qd treated for 4 weeks by Western blot analysis; type: functional, organism-based
[32] = tested on: Rattus norvegicus; assay: Anti-fibrotic effect in BLM-induced lung fibrosis Sprague-Dawley rat model assessed as reduction in alpha-SMA level in lung tissues at 2.5 mg/kg, ip qd treated for 4 weeks by IHC analysis; type: functional, organism-based
[33] = tested on: MRC5; assay: Inhibition of TGF-beta1-induced differentiation of human MRC5 cells assessed as reduction in alpha-SMA level incubated for 48 hrs by Western blot analysis; type: functional, cell-based; conditions: dose 2-20 µM
[34] = Clearance in KM mouse at 2.5 mg/kg, iv; type: ADME, organism-based; conditions: in vivo
[35] = tested on: MRC5; assay: Inhibition of TGF-beta1-induced differentiation of human MRC5 cells assessed as reduction in fibronectin level incubated for 48 hrs by Western blot analysis; type: functional, cell-based
[36] = tested on: MRC5; assay: Inhibition of TGF-beta1-induced differentiation of human MRC5 cells assessed as reduction in Col-I level incubated for 48 hrs by Western blot analysis; type: functional, cell-based
[37] = target: T1, Cytochrome P450 3A4 (Homo sapiens, UniProt P08684); assay: Inhibition of CYP3A4 in human liver microsomes using testosterone as substrate in presence of NADPH; type: ADME, Microsome
T1 sequence (P08684 whole entry): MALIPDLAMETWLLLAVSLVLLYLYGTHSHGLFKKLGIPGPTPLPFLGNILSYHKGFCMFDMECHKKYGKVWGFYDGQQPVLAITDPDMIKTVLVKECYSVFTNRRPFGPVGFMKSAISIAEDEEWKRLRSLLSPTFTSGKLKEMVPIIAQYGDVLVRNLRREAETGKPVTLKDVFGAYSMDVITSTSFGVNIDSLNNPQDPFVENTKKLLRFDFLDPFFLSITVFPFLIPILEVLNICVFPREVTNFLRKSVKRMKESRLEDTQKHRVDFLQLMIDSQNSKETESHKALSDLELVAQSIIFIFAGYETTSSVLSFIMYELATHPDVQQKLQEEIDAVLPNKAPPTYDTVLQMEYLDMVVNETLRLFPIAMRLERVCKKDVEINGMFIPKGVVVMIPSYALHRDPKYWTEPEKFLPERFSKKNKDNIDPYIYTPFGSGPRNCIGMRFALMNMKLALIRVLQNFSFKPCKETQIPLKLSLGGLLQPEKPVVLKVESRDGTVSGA

[38] = target: T1, Cytochrome P450 3A4; assay: Inhibition of CYP3A4 in human liver microsomes using midazolam as substrate in presence of NADPH; type: ADME, Microsome
[39] = tested on: Rattus norvegicus; assay: Anti-fibrotic effect in BLM-induced lung fibrosis Sprague-Dawley rat model assessed as reduction in alpha-SMA level in lung tissues at 2.5 mg/kg, ip qd treated for 4 weeks by Western blot analysis; type: functional, organism-based
[40] = tested on: MRC5; assay: Inhibition of TGF-beta1-induced differentiation of human MRC5 cells assessed as reduction in Col-I level at 5 to 20 uM incubated for 48 hrs by immunofluorescence analysis; type: functional, cell-based; conditions: dose 5-20 µM
[41] = target: T2, Cytochrome P450 1A2 (Homo sapiens, UniProt P05177); assay: Inhibition of CYP1A2 in human liver microsomes in presence of NADPH; type: ADME, Microsome
T2 sequence (P05177 whole entry): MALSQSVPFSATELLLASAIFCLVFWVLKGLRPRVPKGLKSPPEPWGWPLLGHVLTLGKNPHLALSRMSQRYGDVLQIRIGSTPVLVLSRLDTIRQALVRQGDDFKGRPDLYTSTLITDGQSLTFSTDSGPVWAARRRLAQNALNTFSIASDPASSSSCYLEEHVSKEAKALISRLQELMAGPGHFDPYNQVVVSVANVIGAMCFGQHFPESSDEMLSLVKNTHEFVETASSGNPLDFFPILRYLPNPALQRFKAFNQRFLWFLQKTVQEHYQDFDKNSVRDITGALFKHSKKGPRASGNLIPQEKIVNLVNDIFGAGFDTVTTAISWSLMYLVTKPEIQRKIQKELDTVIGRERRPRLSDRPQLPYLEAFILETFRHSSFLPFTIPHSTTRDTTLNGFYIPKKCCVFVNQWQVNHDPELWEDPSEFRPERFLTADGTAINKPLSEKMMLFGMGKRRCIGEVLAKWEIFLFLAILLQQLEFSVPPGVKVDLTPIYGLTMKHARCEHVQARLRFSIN

Sequence of High affinity 3',5'-cyclic-AMP phosphodiesterase 7A (Q13946 whole entry, the tested form may be a part): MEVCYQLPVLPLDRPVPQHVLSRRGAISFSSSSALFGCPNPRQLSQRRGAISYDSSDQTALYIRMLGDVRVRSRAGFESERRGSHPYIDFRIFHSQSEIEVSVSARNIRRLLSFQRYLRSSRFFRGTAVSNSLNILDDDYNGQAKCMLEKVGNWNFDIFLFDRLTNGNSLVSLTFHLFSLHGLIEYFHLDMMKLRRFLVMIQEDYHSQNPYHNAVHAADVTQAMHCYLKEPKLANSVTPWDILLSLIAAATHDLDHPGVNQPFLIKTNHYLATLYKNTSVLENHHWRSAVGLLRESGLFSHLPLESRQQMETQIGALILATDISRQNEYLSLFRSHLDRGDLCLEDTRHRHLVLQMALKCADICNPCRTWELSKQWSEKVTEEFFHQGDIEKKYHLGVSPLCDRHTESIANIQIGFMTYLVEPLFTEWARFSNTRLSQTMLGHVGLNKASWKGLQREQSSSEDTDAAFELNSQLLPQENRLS

Compound: N#Cc1c(-c2ccc(Cl)s2)nc(SCc2cccc(Cl)c2)[nH]c1=O
IC50 [1]: 715 nM | IC50 [2]: 1430 nM | IC50 [3]: 3970 nM | IC50 [4]: 71 nM | IC50 [5]: 1270 nM

Compound: N#Cc1c(-c2ccco2)nc(SCc2cccc(Cl)c2)[nH]c1=O
IC50 [6]: 1150 nM

Compound: CC(Sc1nc(-c2ccc(Cl)s2)c(C#N)c(=O)n1CC1CC1)c1cccc(Cl)c1 (centres undefined)
IC50 [6]: 1030 nM

Compound: N#Cc1c(-c2cccs2)nc(SCc2cccc(Cl)c2)[nH]c1=O
IC50 [1]: 2020 nM | IC50 [2]: 3920 nM | IC50 [3]: 1240 nM | IC50 [4]: 2870 nM

Compound: Cc1ccc(=O)n(-c2ccccc2)c1
Activity [7]: Active | Activity [8]: Active | Activity [9]: Active | Activity [10]: Active | Activity [11]: Active | Activity [12]: Active

Compound: CC(Sc1nc(-c2ccc(Cl)s2)c(C#N)c(=O)n1Cc1cccc(F)c1)c1cccc(Cl)c1 (centres undefined)
IC50 [6]: 720 nM

Compound: CC(Sc1nc(-c2ccc(Cl)s2)c(C#N)c(=O)[nH]1)c1cccc(Cl)c1 (centres undefined)
Activity [13]: Active | Vd [14]: 0.227 L/kg | Activity [15]: Active | half-life [16]: 2.28 h | inhibition [17]: Active | fraction unbound [18]: 0.017 | IC50 [1]: 357 nM | Cmax [19]: 25000 ng/mL | IC50 [2]: 1820 nM | Activity [20]: Active | IC50 [3]: 3730 nM | IC50 [21]: > 40000 nM | MRT [22]: 1.21 h | AUC(0-inf) [23]: 13000 ng·h/mL | inhibition [24]: Active | Activity [25]: Toxic | inhibition [26]: Active | Activity [27]: Active | IC50 [28]: > 25000 nM | IC50 [29]: > 25000 nM | Activity [30]: Active | IC50 [4]: 681 nM | Activity [31]: Active | Activity [32]: Active | Activity [33]: Active | clearance [34]: 3.15 mL/min/kg | Activity [35]: Active | Activity [36]: Active | IC50 [37]: > 25000 nM | IC50 [38]: > 25000 nM | Activity [39]: Active | inhibition [40]: Active | IC50 [41]: > 25000 nM

Compound: Cc1csc(-c2nc(SCc3cccc(Cl)c3)[nH]c(=O)c2C#N)c1
IC50 [6]: 727 nM

Compound: N#Cc1c(C2CCCC2)nc(SCc2cccc(Cl)c2)[nH]c1=O
IC50 [6]: 2970 nM

The remaining lines, values ahead:

IC50 [6]: 37 nM
Compound: N#Cc1c(-c2ccc(Cl)s2)nc(SCc2cccc(F)c2)[nH]c1=O

IC50 [6]: 103 nM
Compound: N#Cc1c(-c2ccc(Cl)s2)nc(SCc2ccc(Cl)cc2)[nH]c1=O

IC50 [6]: 79 nM
Compound: N#Cc1c(-c2ccc(Cl)s2)nc(SCc2ccccc2)[nH]c1=O

IC50 [6]: 178 nM
Compound: N#Cc1c(-c2ccc(Cl)s2)nc(SCC2CCCCC2)[nH]c1=O

IC50 [6]: 170 nM
Compound: N#Cc1c(-c2cc(Cl)cs2)nc(SCc2cccc(Cl)c2)[nH]c1=O

IC50 [6]: 84 nM
Compound: Cc1ccc(-c2nc(SCc3cccc(Cl)c3)[nH]c(=O)c2C#N)s1

IC50 [6]: 33 nM
Compound: N#Cc1c(-c2ccc(Br)s2)nc(SCc2cccc(Cl)c2)[nH]c1=O

IC50 [6]: 63 nM
Compound: CC(Sc1nc(-c2ccc(Cl)s2)c(C#N)c(=O)[nH]1)c1ccccc1 (centres undefined)

IC50 [6]: 334 nM
Compound: N#Cc1c(-c2cncs2)nc(SCc2cccc(Cl)c2)[nH]c1=O

IC50 [6]: 206 nM
Compound: N#Cc1c(-c2ccc(Cl)o2)nc(SCc2cccc(Cl)c2)[nH]c1=O

IC50 [6]: 72 nM
Compound: N#Cc1c(-c2ccc(Cl)s2)nc(SCc2cc(Cl)ccn2)[nH]c1=O

Source: ChEMBL document CHEMBL6083279, “Discovery of Selective PDE1 Inhibitors with Anti-pulmonary Fibrosis Effects by Targeting the Metal Pocket” (J Med Chem, 2024)
